Experimental data: patent US4500520A, “Antiinflammatory and/or analgesic silylfurans” (E. I. Du Pont de Nemours and Company, priority 1983, dated 1985)
Like-named read-outs stand apart in the source and are kept apart here.

Experiments:
[1] = test system: adjuvant-induced arthritis (paw volume, uninjected left hind paw); assay: Established adjuvant-induced arthritis in rats; type: in vivo, rat (male Charles River Lewis); conditions: for Adjuvant Arthritis, percent reduction in paw volume at the indicated dose: at 27 mg/kg; for ED50: Rattus norvegicus, read-out: Adjuvant Arthritis ED50
[2] = test system: phenylquinone-induced writhing; assay: Phenylquinone writhing test; type: in vivo, mouse (female white); conditions: Mus musculus, read-out: Phenylquinone Writhing (PQW) ED50
Description: PHENYLQUINONE WRITHING TEST
A standard procedure for detecting and comparing the analgesic activity of compounds in this series for which there is a good correlation with human efficacy is the standard phenylquinone writhing test modified from Siegmund, et al., Proc. Soc. Exp. Biol. Med., 95, 729 (1957). A test compound suspended in 1% methylcellulose was given orally to fasted (17-21 hours) female white mice, 5-20 animals per double blind test. Aqueous (0.01% phenyl-p-benzoquinone) phenylquinone, 0.20 ml per mouse, was injected intraperitoneally 6 minutes before observations were begun. […] The effective analgesic dose for 50% of the mice (ED50) was calculated by the moving average method of Thompson, W. R., Bact. Rev., 11, 115-145 (1947); the time of peak activity was determined for many of the compounds. Data for some of the compounds are summarized in Table II together with data for some standard analgetic-antiinflammatory drugs.

[3] = oral, 7 daily doses, rats, effective dose for 50% decrease from control paw volume, read from dose-response line by inspection
[4] = oral, mice, effective analgesic dose for 50% of the mice, moving average method

Row | SMILES | Adjuvant Arthritis, percent reduction in paw volume at the indicated dose ([1]; oral, 7 daily doses, rats) [%] | ED50 ([2]; po) [mg/kg] | ED50 ([1]; po) [mg/kg] | ED50 [1, 3] [mg/kg] | ED50 [2, 4] [mg/kg]
1 | C[Si](C)(C)c1cc(-c2ccc(F)cc2)c(-c2ccc(F)cc2)o1 [Example 1, 4,5-bis(4-Fluorophenyl)-2-trimethylsilylfuran] | 32 | 39 | – | – | –
2 | CSc1ccc(-c2cc([Si](C)(C)C)oc2-c2ccc(F)cc2)cc1 [Example 4, 5-(4-Fluorophenyl)-4-(4-methylthiophenyl)-2-trimethylsilylfuran] | – | > 135 | > 27 | – | –
3 | CC(=O)Oc1ccccc1C(=O)O [Aspirin, reference compound] | – | 135 | 305 | – | –
4 | C[Si](C)(C)c1cc(-c2ccccc2)c(-c2ccccc2)o1 [Example 3, 4,5-Diphenyl-2-trimethylsilylfuran] | 24 | 94 | – | – | –
5 | COc1ccc(-c2cc([Si](C)(C)C)oc2-c2ccc(OC)cc2)cc1 [Example 2, 4,5-bis(4-Methoxyphenyl)-2-trimethylsilylfuran] | – | 2.3 | 2.5 | – | –
6 | CCCCC1C(=O)N(c2ccccc2)N(c2ccccc2)C1=O [Phenylbutazone, reference compound] | – | – | – | 10 | 80
7 | CC(C)Cc1ccc(C(C)C(=O)O)cc1 (stereo not drawn) [Ibuprofen, reference compound] | – | – | – | 100 | 10
8 | Cc1ccc(-c2cc([Si](C)(C)C)oc2-c2ccc(Cl)cc2)cc1 [Example 5, 5-(4-Chlorophenyl)-4-(4-methylphenyl)-2-trimethylsilylfuran] | 15 | > 135 | – | – | –
9 | COc1ccc2c(c1)c(CC(=O)O)c(C)n2C(=O)c1ccc(Cl)cc1 [Indomethacin, reference compound] | – | 0.35 | 0.3 | – | –
